The assay can be described thus: Antiproliferative activity against VEGF-stimulated HUVEC cells assessed as reduction in cell viability at 0.5 nM preincubated for 1 hr followed by addition of VEGF measured after 72 hrs by MTT assay. Format: functional. The settings on record: Homo sapiens. (In general: Formazan colour is commonly taken as a measure of viable cells.)

What is called inhibition is the change of the read-out against control, counted positive when it falls.

With `Cc1cc(C)cc(NC(=O)c2ccccc2Sc2ccc3c(/C=C/c4ccccn4)n[nH]c3c2)c1`, the inhibition at 0.0005 µM is -4%. As to `O=C(Nc1cccc(-c2nnco2)c1)c1ccccc1Sc1ccc2c(/C=C/c3ccccn3)n[nH]c2c1`, the inhibition at 0.0005 µM is -23%.

As to `CNC(=O)c1cccc(NC(=O)c2ccccc2Sc2ccc3c(/C=C/c4ccccn4)n[nH]c3c2)c1`, the inhibition at 0.0005 µM was -11%. In the case of `O=C(NCc1ccccc1F)c1ccccc1Nc1ccc2c(/C=C/c3ccccn3)n[nH]c2c1` it was 75%; in that of `CCCCCNC(=O)c1ccccc1Nc1ccc2c(/C=C/c3ccccn3)n[nH]c2c1`, 49%.

With `Cc1cc(C)c(NC(=O)c2ccccc2Sc2ccc3c(/C=C/c4ccccn4)n[nH]c3c2)c(Cl)c1`, the inhibition at 0.0005 µM is -26%. As for `O=C(Nc1nccnn1)c1ccccc1Sc1ccc2c(/C=C/c3ccccn3)n[nH]c2c1`, the inhibition at 0.0005 µM stood at 3%. Then `O=C(NC[C@@H](O)c1ccccc1)c1ccccc1Sc1ccc2c(/C=C/c3ccccn3)n[nH]c2c1`, with 2%; and `CC(C)OCCNC(=O)c1ccccc1Nc1ccc2c(/C=C/c3ccccn3)n[nH]c2c1`, with 51%.

In the case of `CCOC(=O)c1cccc(NC(=O)c2ccccc2Sc2ccc3c(/C=C/c4ccccn4)n[nH]c3c2)c1`, the inhibition at 0.0005 µM came out at 7%.

Turning to `CC(C)(C)CNC(=O)c1ccccc1Nc1ccc2c(/C=C/c3ccccn3)n[nH]c2c1`, the inhibition at 0.0005 µM was in the range of 5 to 19%. For the compound `Cc1ccccc1C(=O)NNC(=O)c1ccccc1Nc1ccc2c(/C=C/c3ccccn3)n[nH]c2c1`, the inhibition at 0.0005 µM was found to be 86%. For `O=C(Nc1cc(F)cc(F)c1)c1ccccc1Sc1ccc2c(/C=C/c3ccccn3)n[nH]c2c1`, the inhibition at 0.0005 µM was -36%. In the case of `Cc1nc(O)cc(NC(=O)c2ccccc2Sc2ccc3c(/C=C/c4ccccn4)n[nH]c3c2)n1` it was 3%; in that of `O=C(Nc1ccc(O)c2ccccc12)c1ccccc1Sc1ccc2c(/C=C/c3ccccn3)n[nH]c2c1`, 4%; in that of `C[N+](C)(C)NC(=O)c1ccccc1Nc1ccc2c(/C=C/c3ccccn3)n[nH]c2c1`, 8%.

Consider `O=C(NCC12CC3CC(CC(C3)C1)C2)c1ccccc1Sc1ccc2c(/C=C/c3ccccn3)n[nH]c2c1`, for which the inhibition at 0.0005 µM was determined as 1%. Then `O=C(Nc1ccc2c(c1)CCC2)c1ccccc1Sc1ccc2c(/C=C/c3ccccn3)n[nH]c2c1`, with -6%; and `COc1ccc(NC(=O)c2ccccc2Sc2ccc3c(/C=C/c4ccccn4)n[nH]c3c2)cc1O`, with -19%; and `Cn1c(NC(=O)c2ccccc2Sc2ccc3c(/C=C/c4ccccn4)n[nH]c3c2)nc2ccccc21`, with -21%.

`C[C@@H](O)CNC(=O)c1ccccc1Sc1ccc2c(/C=C/c3ccccn3)n[nH]c2c1`: the inhibition at 0.0005 µM was found to be 22%.

On to `Cc1cc(NC(=O)c2ccccc2Sc2ccc3c(/C=C/c4ccccn4)n[nH]c3c2)ccc1C(C)C`, for which the inhibition at 0.0005 µM worked out at 6%. Then `CCCc1ccc(NC(=O)c2ccccc2Sc2ccc3c(/C=C/c4ccccn4)n[nH]c3c2)cc1`, with 22%; and `CC(C)Oc1ccc(NC(=O)c2ccccc2Sc2ccc3c(/C=C/c4ccccn4)n[nH]c3c2)cc1`, with -9%; and `Cc1ccc(C(N)=O)cc1NC(=O)c1ccccc1Sc1ccc2c(/C=C/c3ccccn3)n[nH]c2c1`, with 15%.

On to `O=C(Nc1cnc2ccccc2c1)c1ccccc1Sc1ccc2c(/C=C/c3ccccn3)n[nH]c2c1`, for which the inhibition at 0.0005 µM is -8%. Then `Cc1ccc(NC(=O)c2ccccc2Sc2ccc3c(/C=C/c4ccccn4)n[nH]c3c2)cc1`, with -15%; and `O=C(N[C@@H]1c2ccccc2C[C@@H]1O)c1ccccc1Sc1ccc2c(/C=C/c3ccccn3)n[nH]c2c1`, with -6%; and `CNc1ccccc1NC(=O)c1ccccc1Sc1ccc2c(/C=C/c3ccccn3)n[nH]c2c1`, with -2%. Then `O=C(N[C@H](CO)[C@@H](O)c1ccccc1)c1ccccc1Sc1ccc2c(/C=C/c3ccccn3)n[nH]c2c1`, with 10%; and `Cc1ccc(NC(=O)c2ccccc2Sc2ccc3c(/C=C/c4ccccn4)n[nH]c3c2)cc1Cl`, with -11%. In the case of `Cc1cccc(CNC(=O)c2ccccc2Nc2ccc3c(/C=C/c4ccccn4)n[nH]c3c2)c1`, the inhibition at 0.0005 µM turned out to be 19%. Regarding `CC(C)(NC(=O)c1ccccc1Sc1ccc2c(/C=C/c3ccccn3)n[nH]c2c1)c1ccccc1`, the inhibition at 0.0005 µM was -25%. Then `O=C(N[C@H](CO)c1ccccc1)c1ccccc1Sc1ccc2c(/C=C/c3ccccn3)n[nH]c2c1`, with 18%. Then `C[C@H](NC(=O)c1ccccc1Sc1ccc2c(/C=C/c3ccccn3)n[nH]c2c1)c1ccccc1`, with -3%; and `Cc1ccccc1NC(=O)c1ccccc1Sc1ccc2c(/C=C/c3ccccn3)n[nH]c2c1`, with 5%. In the case of `CC1(C)C2CC[C@H](CNC(=O)c3ccccc3Sc3ccc4c(/C=C/c5ccccn5)n[nH]c4c3)C1C2` (some centres undefined) it was -19%; in that of `COc1ccc(C(N)=O)cc1NC(=O)c1ccccc1Sc1ccc2c(/C=C/c3ccccn3)n[nH]c2c1`, 5%. `COc1ccccc1CNC(=O)c1ccccc1Nc1ccc2c(/C=C/c3ccccn3)n[nH]c2c1`: the inhibition at 0.0005 µM turned out to be 36%. Regarding `O=C(Nc1ccccc1Cl)c1ccccc1Sc1ccc2c(/C=C/c3ccccn3)n[nH]c2c1`, the inhibition at 0.0005 µM was -2%. `C[C@@H](NC(=O)c1ccccc1Sc1ccc2c(/C=C/c3ccccn3)n[nH]c2c1)c1cccc2ccccc12`: the inhibition at 0.0005 µM stood at 1%.

On to `C[C@@H](NC(=O)c1ccccc1Sc1ccc2c(/C=C/c3ccccn3)n[nH]c2c1)c1ccc2ccccc2c1`, for which the inhibition at 0.0005 µM was 1%. In the case of `O=C(N[C@@H]1C[C@H]1c1ccccc1)c1ccccc1Sc1ccc2c(/C=C/c3ccccn3)n[nH]c2c1` (racemic) it was 10%; in that of `C[C@H](NC(=O)c1ccccc1Sc1ccc2c(/C=C/c3ccccn3)n[nH]c2c1)[C@H](O)c1ccccc1`, 9%. Turning to `Cc1c(Cl)cccc1NC(=O)c1ccccc1Sc1ccc2c(/C=C/c3ccccn3)n[nH]c2c1`, the inhibition at 0.0005 µM is 9%. As to `O=C(Nc1ccc(F)c(F)c1)c1ccccc1Sc1ccc2c(/C=C/c3ccccn3)n[nH]c2c1`, the inhibition at 0.0005 µM was -38%. Regarding `COc1ccc(NC(=O)c2ccccc2Sc2ccc3c(/C=C/c4ccccn4)n[nH]c3c2)cc1`, the inhibition at 0.0005 µM is 4%. Then `C[C@H](CNC(=O)c1ccccc1Sc1ccc2c(/C=C/c3ccccn3)n[nH]c2c1)c1ccccc1`, with -9%; and `O=C(Nc1cc(Cl)ccc1O)c1ccccc1Sc1ccc2c(/C=C/c3ccccn3)n[nH]c2c1`, with -22%.

As to `C#CCNC(=O)c1ccccc1Nc1ccc2c(/C=C/c3ccccn3)n[nH]c2c1`, the inhibition at 0.0005 µM worked out at 95%. Turning to `CC(C)(C)CC(C)(C)NC(=O)c1ccccc1Sc1ccc2c(/C=C/c3ccccn3)n[nH]c2c1`, the inhibition at 0.0005 µM amounted to 0%. Then `Cc1cc(F)ccc1NC(=O)c1ccccc1Sc1ccc2c(/C=C/c3ccccn3)n[nH]c2c1`, with -22%. For the compound `Cc1cc(C)c(NC(=O)c2ccccc2Sc2ccc3c(/C=C/c4ccccn4)n[nH]c3c2)c(C)c1`, the inhibition at 0.0005 µM was -10%. In the case of `O=C(Nc1c(Cl)cccc1Cl)c1ccccc1Sc1ccc2c(/C=C/c3ccccn3)n[nH]c2c1` it was -45%. Then `O=C(Nc1ccc(O)cc1O)c1ccccc1Sc1ccc2c(/C=C/c3ccccn3)n[nH]c2c1`, with 20%; and `Cc1c(O)cccc1NC(=O)c1ccccc1Sc1ccc2c(/C=C/c3ccccn3)n[nH]c2c1`, with 1%. Then `CC(C)(C)OC(=O)C(C)(C)NC(=O)c1ccccc1Sc1ccc2c(/C=C/c3ccccn3)n[nH]c2c1`, with 6%. As to `CCc1cccc(C)c1NC(=O)c1ccccc1Sc1ccc2c(/C=C/c3ccccn3)n[nH]c2c1`, the inhibition at 0.0005 µM is -4%. In the case of `O=C(NCc1cc(F)cc(F)c1F)c1ccccc1Sc1ccc2c(/C=C/c3ccccn3)n[nH]c2c1` it was 24%; in that of `C[C@@H](NC(=O)c1ccccc1Sc1ccc2c(/C=C/c3ccccn3)n[nH]c2c1)c1ccccc1`, 9%; in that of `O=C(N[C@@H]1CN2CC[C@H]1C2)c1ccccc1Nc1ccc2c(/C=C/c3ccccn3)n[nH]c2c1`, 12%.

With `CC(C)(Cc1ccc(F)cc1)NC(=O)c1ccccc1Sc1ccc2c(/C=C/c3ccccn3)n[nH]c2c1`, the inhibition at 0.0005 µM is -7%. Then `COC(=O)c1ccc(NC(=O)c2ccccc2Sc2ccc3c(/C=C/c4ccccn4)n[nH]c3c2)c(O)c1`, with -22%; and `O=C(Nc1nccc2cccnc12)c1ccccc1Sc1ccc2c(/C=C/c3ccccn3)n[nH]c2c1`, with -3%; and `CCOC(=O)c1c[nH]nc1NC(=O)c1ccccc1Sc1ccc2c(/C=C/c3ccccn3)n[nH]c2c1`, with -11%.

Turning to `CC(=O)Nc1cccc(NC(=O)c2ccccc2Sc2ccc3c(/C=C/c4ccccn4)n[nH]c3c2)c1`, the inhibition at 0.0005 µM was -29%. Regarding `O=C(Nc1ccc2ncsc2c1)c1ccccc1Sc1ccc2c(/C=C/c3ccccn3)n[nH]c2c1`, the inhibition at 0.0005 µM is -20%. Then `C#CC(NC(=O)c1ccccc1Sc1ccc2c(/C=C/c3ccccn3)n[nH]c2c1)C1CCCCC1` (centres undefined), with 3%; and `O=C(Nc1cc(F)c(F)c(F)c1)c1ccccc1Sc1ccc2c(/C=C/c3ccccn3)n[nH]c2c1`, with 0%. In the case of `COc1sc(NC(=O)c2ccccc2Sc2ccc3c(/C=C/c4ccccn4)n[nH]c3c2)nc1C` it was -2%; in that of `O=C(NCc1ccc2c(c1)OCC2)c1ccccc1Sc1ccc2c(/C=C/c3ccccn3)n[nH]c2c1`, 14%. In the case of `O=C(Nc1cccc2c1CCCC2)c1ccccc1Sc1ccc2c(/C=C/c3ccccn3)n[nH]c2c1` it was -17%. For the compound `O=C(NNC(=O)c1ccccc1Nc1ccc2c(/C=C/c3ccccn3)n[nH]c2c1)c1cccnc1`, the inhibition at 0.0005 µM is 31%. Then `O=C(N[C@H](CO)Cc1ccccc1)c1ccccc1Sc1ccc2c(/C=C/c3ccccn3)n[nH]c2c1`, with 1%.

The record behind these values is ChEMBL document CHEMBL3880421, “Indazole compounds and pharmaceutical compositions for inhibiting protein kinases, and methods for their use” (2003).
